For the test, the target named is p38a activated, mitogen-activated protein kinase-activated protein kinase 2 (MAPKAP-K2 or MK2) enzyme (Homo sapiens (Human), UniProt P49137). Put plainly: MK2 Omnia continuous-read kinase assay for compound potency. Format: biochemical. Conditions: [MK-2]=0.4 nM, [ATP]=10 μM, [ST3-Sox]=10 μM; room temperature. The procedure, abridged: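 Continuous Sox-peptide fluorescence read (ex360/em485) every 71 s over 2 h at room temperature. Reactions: 10 μM each of ATP (at apparent Km) and S/T3-Sox, 0.4 nM p38a-activated MK2, pH 7.5 Tris/MgCl2 buffer. Initial rates yield % inhibition and IC50; single-exponential kobs values yield apparent kinact/KI.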
p38a activated, mitogen-activated protein kinase-activated protein kinase 2 (MAPKAP-K2 or MK2) enzyme, sequence (P49137 whole entry): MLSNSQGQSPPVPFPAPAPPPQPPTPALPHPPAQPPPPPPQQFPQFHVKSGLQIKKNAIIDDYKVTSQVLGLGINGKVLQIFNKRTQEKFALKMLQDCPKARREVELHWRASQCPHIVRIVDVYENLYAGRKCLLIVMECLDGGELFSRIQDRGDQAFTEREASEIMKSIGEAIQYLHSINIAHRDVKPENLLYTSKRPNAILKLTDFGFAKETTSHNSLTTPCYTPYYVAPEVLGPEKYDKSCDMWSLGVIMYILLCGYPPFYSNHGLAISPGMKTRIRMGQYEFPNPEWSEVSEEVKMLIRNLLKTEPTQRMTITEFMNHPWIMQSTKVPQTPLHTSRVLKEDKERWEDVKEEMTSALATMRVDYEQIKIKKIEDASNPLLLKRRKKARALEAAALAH

Among the data in patent US20240190890A1, “MK2 INHIBITORS AND USES THEREOF” (Bristol-Myers Squibb Company, priority 2022, published 2024) are IC50 values, retold here.

`C=Cc1nccn1-c1ccc2c(ccc3sc4c(c32)NC[C@@H](CF)NC4=O)n1` [Example I-255, (S)-10-(fluoromethyl)-3-(2-vinyl-1H-imidazol-1-yl)-9,10,11,12-tetrahydro-8H-[1,4]diazepino[5′,6′:4,5]thieno[3,2-f]quinolin-8-one]: the half-maximal inhibitory concentration (IC50) is 1 nM.
As to `C=Cc1cc(-c2ccc3c(ccc4sc5c(c43)NC[C@@H](C)NC5=O)n2)ccn1` [Example I-55, (R)-10-methyl-3-(2-vinylpyridin-4-yl)-9,10,11,12-tetrahydro-8H-[1,4]diazepino[5′,6′:4,5]thieno[3,2-f]quinolin-8-one], the 50% inhibitory concentration (IC50) turned out to be 1 nM.
The figure for `C=Cc1nn(C)cc1-c1ccc2c(ccc3sc4c(c32)NC[C@@H](C)NC4=O)n1` [Example I-230, (R)-10-methyl-3-(1-methyl-3-vinyl-1H-pyrazol-4-yl)-9,10,11,12-tetrahydro-8H-[1,4]diazepino[5′,6′:4,5]thieno[3,2-f]quinolin-8-one] is 44 nM.
With `C=Cc1cc(-c2ccc3c(ccc4sc5c(c43)NC[C@@H](C)NC5=O)n2)cc(N2CC3(COC3)C2)n1` [Example I-238, (R)-3-(2-(2-oxa-6-azaspiro[3.3]heptan-6-yl)-6-vinylpyridin-4-yl)-10-methyl-9,10,11,12-tetrahydro-8H-[1,4]diazepino[5′,6′:4,5]thieno[3,2-f]quinolin-8-one], the 50% inhibitory concentration (IC50) was 6 nM.
In the case of `C=Cc1cc(-c2ccc3c(ccc4sc5c(c43)NC[C@@H](C)NC5=O)n2)c(C(=O)OC)nn1` [Example I-137, methyl (R)-4-(10-methyl-8-oxo-9,10,11,12-tetrahydro-8H-[1,4]diazepino[5′,6′:4,5]thieno[3,2-f]quinolin-3-yl)-6-vinylpyridazine-3-carboxylate], the IC50 was determined as 3 nM.
With `C=Cc1cc(-c2ccc3c(ccc4sc5c(c43)NC[C@@H](C)NC5=O)n2)c(CO)cn1` [Example I-252, (R)-3-(5-(hydroxymethyl)-2-vinylpyridin-4-yl)-10-methyl-9,10,11,12-tetrahydro-8H-[1,4]diazepino[5′,6′:4,5]thieno[3,2-f]quinolin-8-one], the IC50 came out at 5 nM.
In the case of `C#Cc1nccc(-c2ccc3c(ccc4sc5c(c43)NC[C@@H](C)NC5=O)n2)c1C` [Example I-220, (R)-3-(2-ethynyl-3-methylpyridin-4-yl)-10-methyl-9,10,11,12-tetrahydro-8H-[1,4]diazepino[5′,6′:4,5]thieno[3,2-f]quinolin-8-one], the IC50 worked out at 177 nM.
On to `[2H]c1c(C=C)ncc(C([2H])([2H])[2H])c1-c1ccc2c(ccc3sc4c(c32)NC[C@@H](C)NC4=O)n1` [Example I-249, (R)-10-methyl-3-(5-(methyl-d3)-2-vinylpyridin-4-yl-3-d)-9,10,11,12-tetrahydro-8H-[1,4]diazepino[5′,6′:4,5]thieno[3,2-f]quinolin-8-one], for which the half-maximal inhibitory concentration (IC50) worked out at 4 nM.
Turning to `C#Cc1cc(-c2ccc3c(ccc4sc5c(c43)NC[C@@H](C)NC5=O)n2)cc(N2CCOCC2)n1` [Example I-157, (R)-3-(2-ethynyl-6-morpholinopyridin-4-yl)-10-methyl-9,10,11,12-tetrahydro-8H-[1,4]diazepino[5′,6′:4,5]thieno[3,2-f]quinolin-8-one], the 50% inhibitory concentration (IC50) was 214 nM.
Turning to `C[C@@H]1CNc2c(sc3ccc4nc(-c5nc(Cl)ncc5COC5(C)COC5)ccc4c23)C(=O)N1` [Example I-28, (R)-3-(2-chloro-5-(((3-methyloxetan-3-yl)oxy)methyl)pyrimidin-4-yl)-10-methyl-9,10,11,12-tetrahydro-8H-[1,4]diazepino[5′,6′:4,5]thieno[3,2-f]quinolin-8-one], the IC50 is 18 nM.
With `C=C(CN1CCOCC1)c1cc(-c2ccc3c(ccc4sc5c(c43)NC[C@@H](C)NC5=O)n2)c(OC)nn1` [Example I-138, (R)-3-(3-methoxy-6-(3-morpholinoprop-1-en-2-yl)pyridazin-4-yl)-10-methyl-9,10,11,12-tetrahydro-8H-[1,4]diazepino[5′,6′:4,5]thieno[3,2-f]quinolin-8-one], the 50% inhibitory concentration (IC50) was found to be 96 nM.
Consider `C=Cc1nccc(-c2ccc3c(ccc4sc5c(c43)NC[C@@H](C)NC5=O)n2)c1C` [Example I-219, (R)-10-methyl-3-(3-methyl-2-vinylpyridin-4-yl)-9,10,11,12-tetrahydro-8H-[1,4]diazepino[5′,6′:4,5]thieno[3,2-f]quinolin-8-one], for which the 50% inhibitory concentration (IC50) turned out to be 142 nM.
The figure for `C[C@@H]1CNc2c(sc3ccc4nc(-c5cc(/C=C/CN(C)C)ncn5)ccc4c23)C(=O)N1` [Example I-115, (R,E)-3-(6-(3-(dimethylamino)prop-1-en-1-yl)pyrimidin-4-yl)-10-methyl-9,10,11,12-tetrahydro-8H-[1,4]diazepino[5′,6′:4,5]thieno[3,2-f]quinolin-8-one] is 37 nM; for `CC#Cc1ncc(F)c(-c2ccc3c(ccc4sc5c(c43)NC[C@@H](C)NC5=O)n2)n1` [Example I-44, (R)-3-(5-fluoro-2-(prop-1-yn-1-yl)pyrimidin-4-yl)-10-methyl-9,10,11,12-tetrahydro-8H-[1,4]diazepino[5′,6′:4,5]thieno[3,2-f]quinolin-8-one] it is 1000 nM.
With `C=Cc1cncc(-c2ccc3c(ccc4sc5c(c43)NC[C@@H](C)NC5=O)n2)n1` [Example I-163, (R)-10-methyl-3-(6-vinylpyrazin-2-yl)-9,10,11,12-tetrahydro-8H-[1,4]diazepino[5′,6′:4,5]thieno[3,2-f]quinolin-8-one], the IC50 was 109 nM.
Then `C#Cc1cc(-c2ccc3c(ccc4sc5c(c43)NC[C@@H](C)NC5=O)n2)c(C)cn1` [Example I-111, (R)-3-(2-ethynyl-5-methylpyridin-4-yl)-10-methyl-9,10,11,12-tetrahydro-8H-[1,4]diazepino[5′,6′:4,5]thieno[3,2-f]quinolin-8-one], with 104 nM.
Take `C#Cc1cc(-c2ccc3c(ccc4sc5c(c43)NC[C@@H](C)NC5=O)n2)cc(CN2C[C@@H](C)O[C@@H](C)C2)n1` [Example I-186, (R)-3-(2-(((2S,6R)-2,6-dimethylmorpholino)methyl)-6-ethynylpyridin-4-yl)-10-methyl-9,10,11,12-tetrahydro-8H-[1,4]diazepino[5′,6′:4,5]thieno[3,2-f]quinolin-8-one]: the IC50 was 26 nM.
Turning to `[2H]C([2H])([2H])C(O)c1cnc(C=C)cc1-c1ccc2c(ccc3sc4c(c32)NC[C@@H](C)NC4=O)n1` (stereo partly drawn) [Example I-259, (10R)-3-(5-(1-hydroxyethyl-2,2,2-d3)-2-vinylpyridin-4-yl)-10-methyl-9,10,11,12-tetrahydro-8H-[1,4]diazepino[5′,6′:4,5]thieno[3,2-f]quinolin-8-one], the IC50 is 15 nM.
Turning to `C=Cc1cc(-c2ccc3c(ccc4sc5c(c43)NC[C@@H](C)NC5=O)n2)cc(CN2CCC3(CC2)CC3(F)F)n1` [Example I-141, (R)-3-(2-((1,1-difluoro-6-azaspiro[2.5]octan-6-yl)methyl)-6-vinylpyridin-4-yl)-10-methyl-9,10,11,12-tetrahydro-8H-[1,4]diazepino[5′,6′:4,5]thieno[3,2-f]quinolin-8-one], the IC50 worked out at 111 nM.
Then `C#Cc1cc(N2CCN(C)CC2)nc(-c2ccc3c(ccc4sc5c(c43)NC[C@@H](C)NC5=O)n2)n1` [Example I-61, (R)-3-(4-ethynyl-6-(4-methylpiperazin-1-yl)pyrimidin-2-yl)-10-methyl-9,10,11,12-tetrahydro-8H-[1,4]diazepino[5′,6′:4,5]thieno[3,2-f]quinolin-8-one], with 73 nM.
